Results on 31 compounds are retold here after patent US10550105B2 (Ribon Therapeutics Inc., priority 2018, dated 2020).

For this assay, the target named is PARP7 (Homo sapiens (Human), UniProt Q7Z3E1). Put plainly: Enzymatic assay for inhibition of PARP7: TR-FRET displacement of biotinylated Probe A from the TIPARP active site. Conditions: Table A-1. Format: binding. The procedure, abridged: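 Displacement of biotinylated Probe A from TIPARP was measured as the 665/615 nm time-resolved FRET ratio (excitation 320 nm, 90 μs delay) after a further 30 min at 25 °C. Inhibition across compound concentrations was fitted by dose-response regression, with the Hill slope free or fixed at 1 (3-parameter fit).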
PARP7, sequence (Q7Z3E1 whole entry): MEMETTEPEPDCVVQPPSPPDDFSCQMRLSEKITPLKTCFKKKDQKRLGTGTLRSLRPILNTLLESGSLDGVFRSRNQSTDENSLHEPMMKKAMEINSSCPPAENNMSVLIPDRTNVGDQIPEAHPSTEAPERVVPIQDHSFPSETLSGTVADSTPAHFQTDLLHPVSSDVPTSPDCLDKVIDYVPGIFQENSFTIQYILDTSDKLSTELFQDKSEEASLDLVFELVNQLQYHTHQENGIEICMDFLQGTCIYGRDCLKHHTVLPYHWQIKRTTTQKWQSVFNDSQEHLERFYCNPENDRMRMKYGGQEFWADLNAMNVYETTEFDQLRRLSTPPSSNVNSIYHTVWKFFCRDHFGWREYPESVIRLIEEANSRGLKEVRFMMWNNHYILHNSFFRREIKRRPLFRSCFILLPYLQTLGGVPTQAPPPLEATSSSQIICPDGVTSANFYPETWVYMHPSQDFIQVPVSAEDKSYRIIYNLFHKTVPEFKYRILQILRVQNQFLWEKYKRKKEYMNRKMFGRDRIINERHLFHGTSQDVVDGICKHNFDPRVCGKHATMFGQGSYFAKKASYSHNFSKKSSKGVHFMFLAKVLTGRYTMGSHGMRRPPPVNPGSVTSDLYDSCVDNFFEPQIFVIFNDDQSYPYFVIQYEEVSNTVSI
Background: Time-resolved FRET reads energy transfer from a long-lived donor to a nearby acceptor.

Consider `O=C(CCOCCOc1cn[nH]c(=O)c1Cl)N1CCN(c2ncc(C(F)(F)F)cn2)CC1` [Example 520, 4-Chloro-5-[2-(3-oxo-3-[4-[5-(trifluoromethyl)pyrimidin-2-yl]piperazin-1-yl]propoxy)ethoxy]-2,3-dihydropyridazin-3-one], for which the IC50 is less than 100 nM.
The same measure for `N#Cc1ccc(N2CCN(C(=O)CCOCCOc3cn[nH]c(=O)c3Cl)CC2)nc1` [Example 521, 6-[4-(3-[2-[(5-Chloro-6-oxo-1,6-dihydropyridazin-4-yl)oxy]ethoxy]propanoyl)piperazin-1-yl]pyridine-3-carbonitrile]: less than 100 nM; for `O=C(CCOCCOc1cn[nH]c(=O)c1Cl)N1CCN(c2ncc(Cl)cn2)CC1` [Example 522, 4-Chloro-5-(2-[3-[4-(5-chloropyrimidin-2-yl)piperazin-1-yl]-3-oxopropoxy]ethoxy)-2,3-dihydropyridazin-3-one]: less than 100 nM; for `N#Cc1ccc(N2CCN(C(=O)CNCCCOc3cn[nH]c(=O)c3C(F)(F)F)CC2)nc1` [Example 524]: 100 to 1000 nM.
The result for `N#Cc1ccc(N2CCN(C(=O)CCCOCCOc3cn[nH]c(=O)c3C(F)(F)F)CC2)nc1` [Example 525, 6-[4-[4-(2-[[6-Oxo-5-(trifluoromethyl)-1,6-dihydropyridazin-4-yl]oxy]ethoxy)butanoyl]piperazin-1-yl]pyridine-3-carbonitrile] reads less than 100 nM; that for `CN(CCOCCCN1CCN(c2ccc(C#N)cn2)CC1)c1cn[nH]c(=O)c1C(F)(F)F` [Example 526, 6-[4-[3-(2-[Methyl[6-oxo-5-(trifluoromethyl)-1,6-dihydropyridazin-4-yl]amino]ethoxy)propyl]piperazin-1-yl]pyridine-3-carbonitrile], 100 to 1000 nM.
In turn, `N#Cc1ccc(N2CCN(C(=O)CCOC[C@@H](Nc3cn[nH]c(=O)c3C(F)(F)F)c3ccncc3)CC2)nc1` [Example 527A, 6-(4-[3-[(2S)-2-[[6-Oxo-5-(trifluoromethyl)-1,6-dihydropyridazin-4-yl]amino]-2-(pyridin-4-yl)ethoxy]propanoyl]piperazin-1-yl)pyridine-3-carbonitrile] came in with an IC50 of less than 100 nM.
Turning to `N#Cc1ccc(N2CCN(C(=O)CCOC[C@H](Nc3cn[nH]c(=O)c3C(F)(F)F)c3ccncc3)CC2)nc1` [Example 527B, 6-(4-[3-[(2R)-2-[[6-Oxo-5-(trifluoromethyl)-1,6-dihydropyridazin-4-yl]amino]-2-(pyridin-4-yl)ethoxy]propanoyl]piperazin-1-yl)pyridine-3-carbonitrile], the IC50 is no less than 1000 nM.
The result for `C[C@@H](CC(=O)N1CCN(c2ccc(C#N)cn2)CC1)OCCNc1cn[nH]c(=O)c1C(F)(F)F` [Example 528A] reads less than 100 nM; that for `C[C@H](CC(=O)N1CCN(c2ccc(C#N)cn2)CC1)OCCNc1cn[nH]c(=O)c1C(F)(F)F` [Example 528B], less than 100 nM; that for `N#Cc1ccc(N2CCN(C(=O)CCOCC(CO)Nc3cn[nH]c(=O)c3C(F)(F)F)CC2)nc1` (stereo not shown) [Example 529, 6-[4-[3-(3-Hydroxy-2-[[6-oxo-5-(trifluoromethyl)-1,6-dihydropyridazin-4-yl]amino]propoxy)propanoyl]piperazin-1-yl]pyridine-3-carbonitrile], less than 100 nM.
The same measure for `C[C@@H](COCCC(=O)N1CCN(c2ccc(C#N)cn2)CC1)Oc1cn[nH]c(=O)c1C(F)(F)F` [Example 530A, 6-(4-[3-[(2S)-2-[[6-Oxo-5-(trifluoromethyl)-1,6-dihydropyridazin-4-yl]oxy]propoxy]propanoyl]piperazin-1-yl)pyridine-3-carbonitrile]: less than 100 nM; for `C[C@H](COCCC(=O)N1CCN(c2ccc(C#N)cn2)CC1)Oc1cn[nH]c(=O)c1C(F)(F)F` [Example 530B, 6-(4-[3-[(2R)-2-[[6-Oxo-5-(trifluoromethyl)-1,6-dihydropyridazin-4-yl]oxy]propoxy]propanoyl]piperazin-1-yl)pyridine-3-carbonitrile]: 100 to 1000 nM.
The result for `C[C@@H](COc1cn[nH]c(=O)c1C(F)(F)F)OCCC(=O)N1CCN(c2ccc(C#N)cn2)CC1` [Example 530C, 6-[4-(3-[[(2S)-1-[[6-Oxo-5-(trifluoromethyl)-1,6-dihydropyridazin-4-yl]oxy]propan-2-yl]oxy]propanoyl)piperazin-1-yl]pyridine-3-carbonitrile] reads 100 to 1000 nM; that for `C[C@H](COc1cn[nH]c(=O)c1C(F)(F)F)OCCC(=O)N1CCN(c2ccc(C#N)cn2)CC1` [Example 530D, 6-[4-(3-[[(2R)-1-[[6-Oxo-5-(trifluoromethyl)-1,6-dihydropyridazin-4-yl]oxy]propan-2-yl]oxy]propanoyl)piperazin-1-yl]pyridine-3-carbonitrile], less than 100 nM.
Compound `N#Cc1ccc(N2CCN(C(=O)CCO[C@@H]3COC[C@@H]3Oc3cn[nH]c(=O)c3C(F)(F)F)CC2)nc1` [Example 531, 6-[4-(3-[[(3R,4S)-4-[[6-Oxo-5-(trifluoromethyl)-1,6-dihydropyridazin-4-yl]oxy]oxolan-3-yl]oxy]propanoyl)piperazin-1-yl]pyridine-3-carbonitrile] came in with an IC50 of less than 100 nM.
`O=C(CCOCCOc1cn[nH]c(=O)c1C(F)(F)F)N1CCN(c2ncc(Cl)cn2)CC1` [Example 533, 5-(2-[3-[4-(5-Chloropyrimidin-2-yl)piperazin-1-yl]-3-oxopropoxy]ethoxy)-4-(trifluoromethyl)-2,3-dihydropyridazin-3-one] gave a 50% inhibitory concentration (IC50) of less than 100 nM.
The same measure for `O=C(CCOCCOc1cn[nH]c(=O)c1C(F)(F)F)N1CCN(c2ncc(C(F)(F)F)cn2)CC1` [Example 534, 5-[2-(3-Oxo-3-[4-[5-(trifluoromethyl)pyrimidin-2-yl]piperazin-1-yl]propoxy)ethoxy]-4-(trifluoromethyl)-2,3-dihydropyridazin-3-one]: less than 100 nM; for `O=C(CCOCCOc1cn[nH]c(=O)c1C(F)(F)F)N1CCN(c2ccc(Cl)cn2)CC1` [Example 535, 5-(2-[3-[4-(5-Chloropyridin-2-yl)piperazin-1-yl]-3-oxopropoxy]ethoxy)-4-(trifluoromethyl)-2,3-dihydropyridazin-3-one]: less than 100 nM; for `O=C(CCOCCOc1cn[nH]c(=O)c1C(F)(F)F)N1CCN(c2ccc(C(F)(F)F)cn2)CC1` [Example 536, 5-[2-(3-Oxo-3-[4-[5-(trifluoromethyl)pyridin-2-yl]piperazin-1-yl]propoxy)ethoxy]-4-(trifluoromethyl)-2,3-dihydroyridazin-3-one]: less than 100 nM.
The same measure for `N#Cc1ccc(N2CCN(C(=O)CCOC3Cc4ccccc4C3Oc3cn[nH]c(=O)c3C(F)(F)F)CC2)nc1` (stereo not shown) [Example 540, 6-(4-[3-[(1-[[6-Oxo-5-(trifluoromethyl)-1,6-dihydropyridazin-4-yl]oxy]-2,3-dihydro-1H-inden-2-yl)oxy]propanoyl]piperazin-1-yl)pyridine-3-carbonitrile]: 100 to 1000 nM; for `N#Cc1ccc(N2CCN(C(=O)CCO[C@H]3CC[C@H]3Nc3cn[nH]c(=O)c3C(F)(F)F)CC2)nc1` [Example 541, 6-(4-[3-[(1S,2R)-2-[[6-Oxo-5-(trifluoromethyl)-1,6-dihydropyridazin-4-yl]amino]cyclobutoxy]propanoyl]piperazin-1-yl)pyridine-3-carbonitrile]: less than 100 nM.
In turn, `CN(C)CC(COCCC(=O)N1CCN(c2ccc(C#N)cn2)CC1)Oc1cn[nH]c(=O)c1C(F)(F)F` (stereo not shown) [Example 542, 6-(4-[3-[3-(Dimethylamino)-2-[[6-oxo-5-(trifluoromethyl)-1,6-dihydropyridazin-4-yl]oxy]propoxy]propanoyl]piperazin-1-yl)pyridine-3-carbonitrile] displayed an IC50 of less than 100 nM.
`C[C@H](COCCC(=O)N1CCN(c2ncc(Cl)cn2)CC1)Oc1cn[nH]c(=O)c1C(F)(F)F` [Example 543 Isomer D, (R)-5-(1-(3-(4-(5-chloropyrimidin-2-yl)piperazin-1-yl)-3-oxopropoxy)propan-2-yloxy)-4-(trifluoromethyl)pyridazin-3(2H)-one] returned an IC50 of 100 to 1000 nM.
The result for `O=C(CCOCCOc1cn[nH]c(=O)c1Br)N1CCN(c2ncc(Cl)cn2)CC1` [Example 547, 4-Bromo-5-(2-[3-[4-(5-chloropyrimidin-2-yl)piperazin-1-yl]-3-oxopropoxy]ethoxy)-2,3-dihydropyridazin-3-one] reads less than 100 nM; that for `O=C(CCOCCOc1cn[nH]c(=O)c1Br)N1CCN(c2ncc(C(F)(F)F)cn2)CC1` [Example 548, 4-Bromo-5-[2-(3-oxo-3-[4-[5-(trifluoromethyl)pyrimidin-2-yl]piperazin-1-yl]propoxy)ethoxy]-2,3-dihydropyridazin-3-one], less than 100 nM; that for `Cc1c(OCCOCCC(=O)N2CCN(c3ncc(Cl)cn3)CC2)cn[nH]c1=O` [Example 549, 5-(2-[3-[4-(5-Chloropyrimidin-2-yl)piperazin-1-yl]-3-oxopropoxy]ethoxy)-4-methyl-2,3-dihydropyridazin-3-one], less than 100 nM.
The result for `Cc1c(OCCOCCC(=O)N2CCN(c3ncc(C(F)(F)F)cn3)CC2)cn[nH]c1=O` [Example 550, 4-Methyl-5-[2-(3-oxo-3-[4-[5-(trifluoromethyl)pyrimidin-2-yl]piperazin-1-yl]propoxy)ethoxy]-2,3-dihydropyridazin-3-one] reads less than 100 nM; that for `Cc1c(OCCOCCC(=O)N2CCN(c3ccc(C#N)cn3)CC2)cn[nH]c1=O` [Example 551, 6-[4-(3-[2-[(5-Methyl-6-oxo-1,6-dihydropyridazin-4-yl)oxy]ethoxy]propanoyl)piperazin-1-yl]pyridine-3-carbonitrile], less than 100 nM; that for `N#Cc1c(OCCOCCC(=O)N2CCN(c3ncc(Cl)cn3)CC2)cn[nH]c1=O` [Example 552, 5-(2-[3-[4-(5-Chloropyrimidin-2-yl)piperazin-1-yl]-3-oxopropoxy]ethoxy)-3-oxo-2,3-dihydropyridazine-4-carbonitrile], less than 100 nM.
The same measure for `N#Cc1c(OCCOCCC(=O)N2CCN(c3ncc(C(F)(F)F)cn3)CC2)cn[nH]c1=O` [Example 553, 3-Oxo-5-[2-(3-oxo-3-[4-[5-(trifluoromethyl)pyrimidin-2-yl]piperazin-1-yl]propoxy)ethoxy]-2,3-dihydropyridazine-4-carbonitrile]: less than 100 nM.

For orientation: IC50 means the concentration at which inhibition is half-maximal. Read a high IC50 as lower potency.
